Experimental data as given in patent US20230138327A1, “COMPOSITIONS AND METHODS CONTAINING REDUCED NICOTINAMIDE RIBOSIDE FOR PREVENTION AND TREATMENT OF PANCREATIC DISEASES AND CONDITIONS” (SOCIETE DES PRODUITS NESTLE S.A., priority 2020, published 2023).

What was measured:
INS-1E cells [1] = test: Oxidative stress (H2O2)-induced pancreatic β-cell death, cell viability; format: cell-based; settings: H2O2 0.4 mM, 24 hours, NRH 0.1 mM
Procedure: (§1) INS-1E cells were treated with hydrogen peroxide (H2O2; 0.4 mM) for 24 hrs in the presence or absence of NRH (0.1 mM). PBS was used as vehicle for NRH. After 24 hrs, cell viability was evaluated by lumiscence using a commercial kit (Cell Title-Glow; Promega). All results are expressed as mean+/−SEM of n=5 experiments. * indicates P<0.05 vs. the respective vehicle treated group.
INS-1E cells were treated with hydrogen peroxide (H2O2; 0.4 mM) for 24 hours in the presence or absence of NRH (0.1 mM). PBS was used as vehicle for NRH. After 24 hours, cell viability was evaluated by luminescence using a commercial kit (Cell Title-Glow; Promega).

[2] = Tissue NRH levels in mice after oral gavage (LC-MS); format: in vivo; settings: oral gavage 250 mg/kg (stable isotope-labelled NRH), 2 hours
Procedure: (§2) 8 week-old C57BI/6NTac mice were orally gavaged with either saline (as vehicle), and an stable isotope-labelled NRH (250 mg/kg). After 2 hours, pancreas NRH levels were evaluated. All results are expressed as mean+/−SEM of n=4 mice per group, as areas under the signal by LC-MS analysis, corrected by total protein amount of tissue.
as §2, with “and” for “and an stable isotope-labelled”, “liver, skeletal muscle and kidney” for “pancreas”
Levels of NRH and other NAD-related metabolites in biological samples were obtained by using a cold liquid-liquid extraction using a mixture of methanol:water:chloroform in 5:3:5 (v/v), from which the polar phase was recovered for hydrophilic interaction ultra-high performance liquid chromatography mass spectrometry (UHPLC-MS) analysis. The UHPLC consisted of a binary pump, a cooled autosampler, and a column oven (DIONEX Ultimate 3000 UHPLC+ Focused, Thermo Scientific), connected to a triple quadrupole spectrometer (TSQ Vantage, Thermo Scientific) equipped with a heated electrospray ionisation (H-ESI) source. […]

mice [3] = test: Hepatic NAD+ levels in mice after oral administration; format: in vivo
Procedure: 8 week-old C57BI/6NTac mice were orally gavaged with either saline (as vehicle), NR (500 mg/kg) or NRH (500 mg/kg). After 1 hour, liver, skeletal muscle and kidney NAD levels were evaluated. All results are expressed as mean +/−SEM of n=5 mice per group. * indicates statistical difference at p<0.05 vs. vs. saline-treated mice. #indicates statistical difference at p<0.05 vs. NR treated mice.
(§3) Oral administration of NRH led to very similar results to those observed after IP administration. […] NRH was detectable in plasma 1 h after oral administration. In contrast, NR levels were undetectable at 1 h after NR administration.

[4] = test system: primary hepatocytes from control or NRK1 knockout (NRK1KO) mice; test: NAD+ levels in primary hepatocytes from control or NRK1 knockout mice; format: cell-based; settings: 1 hour of treatment
Source text: The action of NRH was also NAMPT-independent, based on experiments using FK866, a NAMPT inhibitor. If NRH led to NAD+ synthesis via the formation of NMNH, this hypothetical path would require the phosphorylation of NRH into NMNH. Given the essential and rate-limiting role of NRK1 in NR phosphorylation, we wondered whether the ability of NRH to boost NAD+ levels was NRK1 dependent. To answer this question, we evaluated NRH action in primary hepatocytes from either control or NRK1 knockout (NRK1KO) mice. […] Further, they rule out the possibility that NRH-induced NAD+ […] is driven by NRH oxidation into NR.

C2C12 myotubes = test: NAD+ levels in C2C12 myotubes after NRH treatment; format: cell-based
INS-1E cells [5] = test: Inflammatory cytokine (IL-1 b)-induced pancreatic β-cell death, cell viability; format: cell-based; settings: IL-1 b 0.25 ng/ml, 24 hours, NRH 0.1 mM
Procedure: as §1, with “Interleukin 1 b (IL-1 b; 0.25 ng/ml)” for “hydrogen peroxide (H2O2; 0.4 mM)”, “luminescence” for “lumiscence”, “n=6” for “n=5”
INS-1E cells were treated with Interleukin 1 b (IL-1 b; 0.25 ng/ml) for 24 hours in the presence or absence of NRH (0.1 mM). PBS was used as vehicle for NRH. After 24 hours, cell viability was evaluated by luminescence using a commercial kit (Cell Title-Glow; Promega).

[6] = Plasma NRH, NR and NAM in mice after oral administration; format: in vivo
Source text: (§4) Levels of NRH and other NAD-related metabolites in biological samples were obtained by using a cold liquid-liquid extraction using a mixture of methanol:water:chloroform in 5:3:5 (v/v), from which the polar phase was recovered for hydrophilic interaction ultra-high performance liquid chromatography mass spectrometry (UHPLC-MS) analysis. The UHPLC consisted of a binary pump, a cooled autosampler, and a column oven (DIONEX Ultimate 3000 UHPLC+ Focused, Thermo Scientific), connected to a triple quadrupole spectrometer (TSQ Vantage, Thermo Scientific) equipped with a heated electrospray ionisation (H-ESI) source. Of each sample, 2 μL were injected into the analytical column (2.1 mm×150 mm, 5 μm pore size, 200 Å HILICON iHILIC®-Fusion(P)), guarded by a pre-column (2.1 mm×20 mm, 200 Å HILICON iHILIC®-Fusion(P) Guard Kit) operating at 35° C. The mobile phase (10 mM ammonium acetate at pH 9, A, and acetonitrile, B) was pumped at 0.25 mL/min flow rate over a linear gradient of decreasing organic solvent (0.5-16 min, 90-25% B), followed by re-equilibration for a total run time of 30 min. The MS operated in positive mode at 3500 V with multiple reaction monitoring (MRM). The software Xcalibur v4.1.31.9 (Thermo Scientific) was used for instrument control, data acquisition and processing. Retention time and mass detection was confirmed by authentic standards.
as §3

[7] = Procedure: NR degradation to NAM has been proposed as a limitation for its pharmacological efficacy. To evaluate whether NRH was also susceptible to degradation to NAM, we spiked NRH or NR in isolated mouse plasma. […] We also tested the stability of NRH in other matrixes. […] Finally, we also certified NRH stability in water (pH=7, at room temperature) for 48 h.
mice [8] = test: Tissue NAD+ levels in mice after intraperitoneal injection; format: in vivo; settings: IP 500 mg/kg, after 1 h
Procedure: (§5) The above results prompted us to test whether NRH could act as an effective NAD+ precursor in vivo. For this, we first intraperitoneally (IP) injected mice with either NR or NRH (500 mg/kg). […] Importantly, NRH was detectable in circulation after IP injection.

[9] = Circulating NRH, NR and NAM in mice after intraperitoneal injection; format: in vivo
Source text: as §4, §5

## NC(=O)C1=CN([C@@H]2O[C@H](CO)[C@@H](O)[C@H]2O)C=CC1 [NRH]
INS-1E cells [1]
  Cell viability under hydrogen peroxide: protects against oxidative stress-induced pancreatic β-cell death
[2]
  NRH levels in pancreas: high levels
Mice [3]
  Effect on hepatic NAD+ levels compared with NR: more potent effect on hepatic NAD+ levels than NR
[4]
  NAD+ levels in NRK1KO derived primary hepatocytes: not affected by NRK1 deficiency
C2C12 myotubes
  NAD+ levels: highly elevated
INS-1E cells [5]
  Cell viability under Interleukin 1 b: protects against inflammatory citokyne-induced pancreatic β-cell death
[6]; mice, after oral gavage
  NRH concentration in plasma: 11.16 ± 1.74 µM
[6]; mouse, in vivo, po
  Administered compound in plasma: detectable
[7]
  Degradation to NAM in FBS supplemented media: did not degrade to NAM
Mice [8]
  NAD+ levels in kidney: increased NAD+ levels
  NAD+ levels in liver: increased NAD+ levels
  NAD+ levels in muscle: increased NAD+ levels
[9]; mice, IP 500 mg/kg
  NAM levels in circulation: only a very mild increase
[9]; mouse, in vivo, ip
  NR in circulation: much higher levels than those detected after NR injection itself
  NRH in circulation: detectable
